Measurements taken from ChEMBL document CHEMBL1201862, “PubChem BioAssay data set” (2004).
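Where inhibition never reached the appropriate level, the endpoint shown equals the highest concentration tested. Otherwise, values were interpolated linearly from a five-concentration, 48-hour dose response in 96-well plates. The concentration for 50% growth inhibition is given as GI50.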 Calls of active or inactive are those of the source. Cut-off read from the data, not from the text of the source: active = GI50 up to about 1.1 µM and inactive = higher.

Columns and labels:
Experiment in all cases: NCI anticancer screen, dose series, 48 h
[1] = test system: A498
[2] = test system: CAKI-1
[3] = test system: DU-145
[4] = test system: EKVX
[5] = test system: HCC 2998
[6] = test system: HCT-116
[7] = test system: HCT-15
[8] = test system: MCF7
[9] = test system: MDA-N
[10] = test system: MOLT-4
[11] = test system: Malme-3M
[12] = test system: NCI-H226
[13] = test system: NCI-H23
[14] = test system: NCI-H460
[15] = test system: OVCAR-4
[16] = test system: SF-268
[17] = test system: SN12C
[18] = test system: U-251
[19] = test system: UO-31
[20] = test system: RXF 393

Structure (SMILES)	GI50 [1]	GI50 [2]	GI50 [3]	GI50 [4]	GI50 [5]	GI50 [6]	GI50 [7] [µM]	GI50 [8]	GI50 [9]	GI50 [10]	GI50 [11]	GI50 [12]	GI50 [13]	GI50 [14]	GI50 [15]	GI50 [16]	GI50 [17]	GI50 [18]	GI50 [19]	GI50 [20]
C=CCOc1cc(NC(=S)c2ccoc2C)ccc1OC	> 100 µM (inactive)	> 100 µM (inactive)	> 100 µM (inactive)	> 100 µM (inactive)	> 100 µM (inactive)	> 100 µM (inactive)	> 100	> 100 µM (inactive)	> 100 µM (inactive)	> 100 µM (inactive)	> 100 µM (inactive)	> 100 µM (inactive)	> 100 µM (inactive)	> 100 µM (inactive)	> 100 µM (inactive)	> 100 µM (inactive)	> 100 µM (inactive)	58.9 µM (inactive)	> 100 µM (inactive)	
O=C1C2CCCCC2C(=O)N1n1c(Cc2ccc(Cl)cc2)n[nH]c1=O (stereo not drawn)	> 100 µM (inactive)	> 100 µM (inactive)		> 100 µM (inactive)	> 100 µM (inactive)	> 100 µM (inactive)	> 100	> 100 µM (inactive)	> 100 µM (inactive)	> 100 µM (inactive)	> 100 µM (inactive)	> 100 µM (inactive)	> 100 µM (inactive)	> 100 µM (inactive)	> 100 µM (inactive)	> 100 µM (inactive)	> 100 µM (inactive)	> 100 µM (inactive)	> 100 µM (inactive)	> 100 µM (inactive)
Fc1cccc(F)c1C1SCc2nc3cc(Cl)c(Cl)cc3n21 (stereo not drawn)		> 100 µM (inactive)	> 100 µM (inactive)	> 100 µM (inactive)	> 100 µM (inactive)	> 100 µM (inactive)	> 100	> 100 µM (inactive)	> 100 µM (inactive)	> 100 µM (inactive)	> 100 µM (inactive)		> 100 µM (inactive)	> 100 µM (inactive)	> 100 µM (inactive)	> 100 µM (inactive)	> 100 µM (inactive)	> 100 µM (inactive)	> 100 µM (inactive)	> 100 µM (inactive)
CCOC(=O)C1=C(N2CCCC2)C(=O)C(C(=O)OCC)C1 (stereo not drawn)	> 100 µM (inactive)	> 100 µM (inactive)		> 100 µM (inactive)	> 100 µM (inactive)	> 100 µM (inactive)	> 100	> 100 µM (inactive)	> 100 µM (inactive)	> 100 µM (inactive)	> 100 µM (inactive)	> 100 µM (inactive)	> 100 µM (inactive)	> 100 µM (inactive)	> 100 µM (inactive)	> 100 µM (inactive)	> 100 µM (inactive)	> 100 µM (inactive)	> 100 µM (inactive)	> 100 µM (inactive)
COc1cccc(OC)c1NC(=O)C(=O)Nn1c(NNC(=O)c2ccncc2)nc2ccccc2c1=O	> 100 µM (inactive)	> 100 µM (inactive)		84.9 µM (inactive)	> 100 µM (inactive)	> 100 µM (inactive)	> 100	> 100 µM (inactive)	> 100 µM (inactive)	> 100 µM (inactive)	> 100 µM (inactive)	> 100 µM (inactive)	> 100 µM (inactive)	> 100 µM (inactive)	> 100 µM (inactive)	> 100 µM (inactive)	> 100 µM (inactive)	> 100 µM (inactive)	> 100 µM (inactive)	> 100 µM (inactive)
CNC(=O)Oc1ccc(C(=S)Nc2ccc(Br)cc2)cc1	18.4 µM (inactive)	17.8 µM (inactive)	26.5 µM (inactive)	8.05 µM (inactive)	17.8 µM (inactive)	19.8 µM (inactive)	16.1	18.3 µM (inactive)	22.2 µM (inactive)	5.42 µM (inactive)	31.3 µM (inactive)		15.7 µM (inactive)		18.5 µM (inactive)	9.55 µM (inactive)		23.2 µM (inactive)	17 µM (inactive)	
COC(=O)c1ccccc1C1=C([N+](=O)[O-])C(c2cccc(Br)c2)C(C#N)=C(N)O1 (stereo not drawn)			32.3 µM (inactive)	36.1 µM (inactive)	26.3 µM (inactive)	31.5 µM (inactive)	19.4		44.6 µM (inactive)	25.4 µM (inactive)		> 100 µM (inactive)	27.1 µM (inactive)	41.3 µM (inactive)		25.8 µM (inactive)	38 µM (inactive)	> 100 µM (inactive)		18.3 µM (inactive)
CSc1nc(Cl)c2c(n1)Sc1nc3ccccc3n1N=C2	> 100 µM (inactive)	13.4 µM (inactive)	> 100 µM (inactive)		26.5 µM (inactive)	25.1 µM (inactive)	17.6		22 µM (inactive)	21.7 µM (inactive)	25.8 µM (inactive)	62.7 µM (inactive)	29.6 µM (inactive)	56 µM (inactive)	29.4 µM (inactive)	31 µM (inactive)	37.8 µM (inactive)	55.6 µM (inactive)	18.5 µM (inactive)	22.6 µM (inactive)
CCN(CC)C(=O)Cn1c(C)cc2ccccc21		> 100 µM (inactive)	> 100 µM (inactive)	> 100 µM (inactive)	> 100 µM (inactive)	> 100 µM (inactive)	> 100	> 100 µM (inactive)	> 100 µM (inactive)	> 100 µM (inactive)	> 100 µM (inactive)	> 100 µM (inactive)	> 100 µM (inactive)	> 100 µM (inactive)	> 100 µM (inactive)	> 100 µM (inactive)	> 100 µM (inactive)	> 100 µM (inactive)	> 100 µM (inactive)	> 100 µM (inactive)
O=C1c2ccccc2C(=O)N1n1c(Cc2ccc(Cl)cc2)n[nH]c1=O	> 100 µM (inactive)	> 100 µM (inactive)	> 100 µM (inactive)	> 100 µM (inactive)	> 100 µM (inactive)	> 100 µM (inactive)	> 100	> 100 µM (inactive)	> 100 µM (inactive)	> 100 µM (inactive)	> 100 µM (inactive)	> 100 µM (inactive)	> 100 µM (inactive)	> 100 µM (inactive)	> 100 µM (inactive)		> 100 µM (inactive)	> 100 µM (inactive)	> 100 µM (inactive)	
Cc1c(O)c(=O)ccn1CCc1c[nH]c2ccccc12		1.21 µM (inactive)	6.44 µM (inactive)	6.31 µM (inactive)		6.61 µM (inactive)	0.397	4.89 µM (inactive)	23 µM (inactive)	8.2 µM (inactive)	18.2 µM (inactive)		20.5 µM (inactive)	4.11 µM (inactive)		2.44 µM (inactive)		6.55 µM (inactive)		
O=C(CC(NC(=O)OCc1ccccc1)C(=O)NC1Cc2ccccc2C1=O)OCc1ccccc1 (stereo not drawn)		> 100 µM (inactive)	> 100 µM (inactive)	> 100 µM (inactive)	> 100 µM (inactive)		> 100	> 100 µM (inactive)	> 100 µM (inactive)	> 100 µM (inactive)	> 100 µM (inactive)	> 100 µM (inactive)	> 100 µM (inactive)	> 100 µM (inactive)		> 100 µM (inactive)	> 100 µM (inactive)	> 100 µM (inactive)	> 100 µM (inactive)	> 100 µM (inactive)
N#CC(c1cc(Cl)ncn1)c1nc2cc(C(F)(F)F)ccc2s1 (stereo not drawn)	5.85 µM (inactive)	8.95 µM (inactive)	12.9 µM (inactive)	14.5 µM (inactive)		2.97 µM (inactive)	3.48		3.42 µM (inactive)	4.74 µM (inactive)	4.14 µM (inactive)	15.1 µM (inactive)	2.58 µM (inactive)	4.78 µM (inactive)	2.97 µM (inactive)	3.66 µM (inactive)	13.7 µM (inactive)	3.08 µM (inactive)	4.97 µM (inactive)	4.33 µM (inactive)
COc1ccc2nc3c([N+](=O)[O-])ccc4c3c(c2c1)N=CN4CCN(C)C	4.16 µM (inactive)	1.36 µM (inactive)	4.09 µM (inactive)	4.65 µM (inactive)	3.83 µM (inactive)	2.44 µM (inactive)	2.57	3.3 µM (inactive)	4.71 µM (inactive)	2.04 µM (inactive)	3.92 µM (inactive)	4.34 µM (inactive)	7.55 µM (inactive)	2.96 µM (inactive)	9.02 µM (inactive)	4.09 µM (inactive)	2.88 µM (inactive)	5.07 µM (inactive)	2.46 µM (inactive)	
COc1ccc(/C(C)=N/NC(=O)c2ccncc2)c(OC)c1	> 10 µM (inactive)	> 10 µM (inactive)	> 10 µM (inactive)	> 10 µM (inactive)	> 10 µM (inactive)		> 10	> 10 µM (inactive)	> 10 µM (inactive)	> 10 µM (inactive)	> 10 µM (inactive)	> 10 µM (inactive)	> 10 µM (inactive)	> 10 µM (inactive)	> 10 µM (inactive)	> 10 µM (inactive)	> 10 µM (inactive)	> 10 µM (inactive)	> 10 µM (inactive)	
CCOC(=O)c1[nH]c(Br)c(-c2ccc(OC)c(OC)c2)c1Br	0.0187 µM (active)		0.0476 µM (active)	4.12 µM (inactive)	0.199 µM (active)	0.0183 µM (active)	0.0527	0.245 µM (active)	0.00567 µM (active)	0.0262 µM (active)	1.71 µM (inactive)	0.0381 µM (active)	0.0891 µM (active)	0.766 µM (active)	4.82 µM (inactive)	0.178 µM (active)	0.117 µM (active)	0.0311 µM (active)	0.0676 µM (active)	0.00906 µM (active)
